Measured values published in patent US20080194922A1, “POTENTIATION FOR MEDICAL THERAPIES” (priority 2005, published 2008).

Experiments:
[1] = tested on: cat with multiple myeloma; assay: Delta Correlation Function analysis of dexamethasone dose versus food intake, cat myeloma model; type: in vivo; settings: for normalized DCF, food intake versus dexamethasone dose: 1 day off
From the text: The inventive method was used to analyze changes from day to day. The data was digitized by substituting either +1 for positive change (dayn+i greater than dayn), 0 (zero) for no change, and −1 for negative change (dayn+i less than dayn). Digitizing the change magnifies small changes by giving small differences the same value as large differences. For example, a positive change is noted as +1 whether the change is 1 milligram or 10 grams.
The inventive method multiplied a digitized change in therapy element by the corresponding digitized change in correlation factor to produce a correlation product. Because the digitized changes are signed (+ or −), changes in the same direction (both positive or both negative) produce a positive product. Changes in opposite directions (one negative and one positive) produce a negative product. The inventive method then provided a rolling average of correlation products over fixed period of time. (A positive average indicates a positive correlation between dose and result.)
There is a phase or timing relationship that should be considered. FIG. 15, drawn to the same scale as FIG. 14, illustrates an eighteen day rolling average of correlation product with a one day offset for the change in food intake. That is, the food intake on dayn+i minus the food intake on dayn is multiplied by the dose on dayn minus the dose on dayn—i. In FIGS. 12-14, the product is the food intake on dayn minus the food intake on dayn—i multiplied by the dose on dayn minus the dose on dayn—i.
Because of the delayed effect of some therapies, the invention provides for an “offset,” or staggering, of the corresponding therapy elements and correlation factors that are multiplied to obtain the normalized Delta Correlation Function (DCF).
A method provided by the invention was used to optimize the dexamethasone regimen based on the correlation factor food intake (i.e., determined the dexamethasome regimen that produces an increase in food intake.) Again, the cat myeloma model was used. […] The normalized DCF was calculated based upon a 24 time point sample (Days 445 to 469) with various offsets.

[2] = tested on: multiple myeloma in a cat; assay: Narrow therapeutic band established by potentiating the therapy of multiple myeloma in a cat
[3] = tested on: cat with multiple myeloma; assay: System Functions (linear regression of dexamethasone dose versus food intake) and test of dexamethasone regimens, cat myeloma model; type: in vivo
From the text: Based on the foregoing analysis, 3 different dexamethasone regimens where designed and hypothesized systems functions were formulated for predicting the impact of a regimen on food intake. […] In general, the system functions are in the form of:
Predicted Food Intake Dayn (tsp)=(dexamethasone dose Dayn) (mg)×Factor Dayn (tsp/mg);
Predicted Food Intake Dayn+1 (tsp)=[(dexamethasone dose Dayn+1) (mg)×Factor Dayn+1 (tsp/mg)]+Predicted Food Intake Dayn;
Predicted Food Intake Dayn+2 (tsp)=[(dexamethasone dose Dayn+2) (mg)×Factor Dayn+2 (tsp/mg)]+Predicted Food Intake Dayn+1;
wherein “Dayn” is the first day of a three to six day dosing cycle and, if the dexamethasone dose is 0.00, this value is converted to 1.00. “Factor Dayn” is regimen specific and was determined by linear regression analysis of the correlation between dexamethasone dose and food intake performed separately for days 1, 2, and 3 of the cycle a given regimen. For example, all first day dexamethasone administrations were identified in the past data. Food intake for those days were compared to the food intake the day before and averaged, then divided by the dose of dexamethasone for each first day (((Food Intake Dayn (tsp)−Dayn−1 (tsp))/number of first days)/dexamethasone Dayn).
The system functions were used to predict the results with three dexarnethasone regimens. Regimen 1 employs a dosing schedule of 0.250 mg dexamethasone 2 days on and then 1 day off.

[4] = thalidomide 1.6 mg, in combination with the other elements of the potentiating protocol

Which “normalized DCF, food intake versus dexamethasone dose” value ([1]; 0.175 mg/day, 2 days on, Days 445 to 469 (24 time points), same day basis (no offset)) does the source give for C[C@@H]1C[C@H]2[C@@H]3CCC4=CC(=O)C=C[C@]4(C)[C@@]3(F)[C@@H](O)C[C@]2(C)[C@@]1(O)C(=O)CO [dexamethasone] here?
Its value is −0.16.

And the “normalized DCF, food intake versus dexamethasone dose” value ([1]; 0.175 mg/day, 2 days on, Days 445 to 469, 2 day offset)?
Its value is “+0.37”.

And the “normalized DCF, food intake versus dexamethasone dose” value ([1]; 0.175 mg/day, 2 days on, Days 445 to 469, 3 day offset)?
The value was −0.09.

What about the “normalized DCF, food intake versus dexamethasone dose” value ([1]; 0.175 mg/day, 2 days on, Days 445 to 469, food intake offset by 1 day) of the same compound?
Its value is −0.21.

What about the “time required for the dexamethasone therapeutic effect to develop” value ([1]; 0.375 mg, 1 day on, 1 day off regimen) of the same compound?
The value was “approximately 1 day”.

What about the “normalized DCF, food intake versus dexamethasone dose” value ([1]; 0.375 mg, 1 day on, Days 37 to 61, 1 day offset) of the same compound?
The value was “+0.5”.

And the “normalized DCF, food intake versus dexamethasone dose” value ([1]; 0.375 mg, 1 day on, Days 37 to 61, same day)?
The value was −0.52.

And the “side effects at minimum dose” value ([2]; dexamethasone 0.125 mg (modulated 2 days on, 1 day off), in combination with the other elements of the protocol)?
The value was “without significant side effects”.

What about the “adverse side effects above end point of narrow band” value ([2]; dexamethasone doses above 0.162 mg, such as thromboses and peripheral neuropathy) of the same compound?
Its value is “increased”.

What about the “Factor Dayn of System Function (food intake per dexamethasone dose)” value ([3]; Regimen 1 (0.250 mg 2 days on, 1 day off), Dayn) of the same compound?
Its value is −5.11 tsp/mg.

What about the “Factor Dayn+1 of System Function” value ([3]; Regimen 1, Dayn+1) of the same compound?
The value was 8.57 tsp/mg.

What about the “Factor Dayn+2 of System Function” value ([3]; Regimen 1, Dayn+2 (day off, dose 0.00 converted to 1.00)) of the same compound?
Its value is 2.23 tsp/mg.

What about the food intake reached ([3]; Regimen 1: 0.250 mg dexamethasone 2 days on, 1 day off, physiologic limit) of the same compound?
Its food intake reached is 15.5 tsp per day.

What about the “Factor Dayn of System Function” value ([3]; Regimen 2 (0.250 mg 2 days on, then 1 day at 0.125 mg), Dayn) of the same compound?
The value was −5.11 tsp/mg.

And the “Factor Dayn+1 of System Function” value ([3]; Regimen 2, Dayn+1)?
Its value is 8.57 tsp/mg.

And the “Factor Dayn+2 of System Function” value ([3]; Regimen 2, Dayn+2 (0.125 mg))?
The value was −0.53 tsp/mg.

And the “Factor Dayn of System Function” value ([3]; Regimen 3 (0.125 mg every day, six day cycle), Dayn)?
The value was −5.11 tsp/mg.

What about the “Factor Dayn+1 of System Function” value ([3]; Regimen 3, Dayn+1) of the same compound?
The value was 8.57 tsp/mg.

What about the “Factor Dayn+2 of System Function” value ([3]; Regimen 3, Dayn+2) of the same compound?
Its value is −0.53 tsp/mg.

What about the “Factor Dayn+3 of System Function” value ([3]; Regimen 3, Dayn+3) of the same compound?
Its value is −0.10 tsp/mg.

And the “Factor Dayn+4 of System Function” value ([3]; Regimen 3, Dayn+4)?
The value was 3.89 tsp/mg.

And the “Factor Dayn+5 of System Function” value ([3]; Regimen 3, Dayn+5)?
Its value is −1.72 tsp/mg.

What does the source list for O=C1CCC(N2C(=O)c3ccccc3C2=O)C(=O)N1 (centres unmarked) [thalidomide]?
side effects at minimum dose [2, 4]: without significant thalidomide side effects or resistance; therapeutic effect at minimum dose [2, 4]: controlled the disease; therapeutic effect above end point of narrow band ([2]; thalidomide doses above 1.8 mg): not increased; adverse side effects above end point of narrow band ([2]; thalidomide doses above 1.8 mg, such as peripheral neuropathy): increased
